Laboratory results: patent US20260048138A1, “NOVEL PI3K AND/OR PIKK INHIBITORS, ANTIBODY-DRUG CONJUGATES COMPRISING THE SAME AND USES THEREOF” (HUTCHMED LIMITED, priority 2024, published 2026)
Where two headings read alike, the source gives them in different places. Each block holds one molecule with its values, some of them ahead of it.

How the values were obtained:
ATM(h) = ATM(h) (Homo sapiens, UniProt Q13315); assay: ATM(h) kinase activity, HTRF (Eurofins Cerep); assay type: biochemical; details: read-out: ATM(h) (enzyme, IC50)
Procedure: (§1) The […], ATM(h), ATR/ATRIP(h), and DNA-PK (h) were detected by HTRFR.
(§2) The calculation formula was as follows: […]
(§3) For IC50 determination, the data were analyzed using XLFit version 5.3 (ID Business Solutions).

[1] = molecular target: T1, Human FRAP1 (mTOR) recombinant protein (Homo sapiens, UniProt P42345); assay: FRAP1 (mTOR) kinase activity, LanthaScreen TR-FRET; assay type: biochemical; details: 10 μM ATP, 0.4 μM GFP-4EBP1; read-out: FRAP1 (mTOR) (Enzyme, IC50)
T1 construct: GST; purchased Invitrogen PV4753
Procedure: Determination of FRAP1 (mTOR) Kinase Activity • Human FRAP1 (mTOR) recombinant protein (GST tag): Invitrogen, Cat. No. PV4753; • GFP-4E-BP1: Thermo Scientific, Cat. No. PV4759; • LanthaScreenTM Tb-p4E-BP1 ([…]) antibody: Thermo Scientific, Cat. No. PV4755; • TR-FRET dilution buffer: Thermo Scientific, Cat. No. PV3574; • ATP solution (10 mM): Thermo Scientific, Cat. No. PV3227; • HEPES (1 M): Gibco, Cat. No. 15630-106; • EDTA (0.5 M), pH 8.0, RNase-free: Invitrogen, Cat. No. A[…]; • Manganese chloride solution: Sigma-Aldrich, Cat. No. M1787; • EGTA: Sigma-Aldrich, Cat. No. E4378; • TWEEN®20: Sigma-Aldrich, Cat. No. P2287; • DTT: Sigma-Aldrich, Cat. No. DTT-RO; • 384-well plate: Corning, Cat. No. 3676; • 384-well plate: Corning, Cat. No. 4514; • Envision multi-mode plate reader: PerkinElmer; 4EBP1 is the substrate of mTOR, and when mTOR is activated, it will phosphorylate […] of the 4EBP1 protein. LanthaScreenTM kinase assay is used to detect the amount of phosphorylated substrate GFP-4E-BP1 produced in kinase activity experiments, thereby judging the mTOR kinase activity, and through the strength of the kinase activity, distinguishing the inhibitory effects of different compounds on the activity of FRAP1 (mTOR) kinase. […] Then, the 384-well plate was placed in a constant temperature incubator protected from light and incubated at room temperature for 1 hour. […] The 384-well plate was taken out and the plate was read using an Envision multi-mode plate reader (the excitation light wavelength was 320 nm and the emission light wavelengths were 495 nm and 520 nm). The inhibition rate was calculated using the formula as below: [formula]

[2] = molecular target: T2, Human PIK3CA/PIK3R1 (p110α/p85α) recombinant protein (Homo sapiens, UniProt P42336); assay: PIK3CA/PIK3R1 (p110α/p85α) kinase activity, Transcreener ADP2 FP; assay type: biochemical; details: 10 μM ATP, 30 μM PIP2:PS; read-out: PIK3CA/PIK3R1 (p110α/p85α) (Enzyme, IC50)
T2 construct: His tag; purchased Invitrogen PV4788
Procedure: The complex formed by the binding of the ADP Alexa633 Tracer to the ADP2 antibody therein could produce fluorescence polarization. […] Assay is carried out according to the instruction of the kit. […] After that, 10 μl PIK3CA/PIK3R1 (p110α/p85α) enzyme solution was added to each well; then, 10 μl of a mixed solution of ATP and PIP2:PS lipid kinase substrate was added to each well, and the mixture was centrifuged at 1000 rpm for 60 seconds; Then, the 96-well plate was placed in a constant temperature incubator protected from light and incubated at room temperature for 1 hour. […] After the enzymatic reaction was completed, 25 μl of ADP detection mixture was added to the positive control group, 25 μl of ADP detection mixture without ADP^2 antibody was added to the negative control group, and 25 μl of ADP detection mixture without tracer-label ADP and ADP^2 antibody was added to the blank control group. Then centrifugation was performed at 1000 rpm for 60 seconds. The 96-well plate was placed in a constant temperature incubator protected from light, and incubated at room temperature for 1.5 hours. […] [formula] The inhibition rate was calculated using the formula as below: [formula]

ATR/ATRIP(h) = molecular target: T3, ATR/ATRIP(h) (Homo sapiens, UniProt Q13535); assay: ATR/ATRIP(h) kinase activity, HTRF (Eurofins Cerep); assay type: biochemical; details: read-out: ATR/ATRIP(h) (enzyme, IC50)
T3 construct: purchased Eurofins Cerep 14-953
Procedure: as §1, §2, §3

DNA-PK(h) = molecular target: T4, DNA-PK(h) (Homo sapiens, UniProt P78527); assay: DNA-PK(h) kinase activity, HTRF (Eurofins Cerep); assay type: biochemical; details: read-out: DNA-PK(h) (enzyme, IC50)
T4 construct: purchased Eurofins Cerep 14-950
Procedure: as §1, §2, §3

MDA-MB-468 = assay: Inhibition of cell proliferation by payloads in vitro (CCK-8); assay type: cell-based; details: Homo sapiens, MDA-MB-468, 144 h, read-out: IC50, nM MDA-MB-468
Procedure: (§4) The cells were added to a 96-well plate at 1.0×10^3 cells/well and 100 μL/well and incubated in a cell culture incubator at 37° C. and 5% CO2. The test compounds were diluted with a DMEM medium containing 2% DMSO (Sigma-Aldrich, Cat. No. 34869) in a 4-fold gradient to the corresponding concentrations. […] The final concentration of DMSO was 0.2%. The cells were incubated in a cell culture incubator at 37° C. and 5% CO2 for 6 days.
(§5) After 6 days of culture, 10 μL/well of Cell Counting Kit-8 reagent (CCK-8, Dojindo, Cat. No. CK04) was added to the wells and mixed well with shaking. The cells were incubated in a cell culture incubator at 37° C. and 5% CO2 for 0.50-4.0 hours.
(§6) The OD450 optical density value was read on an EnVision™ multi-function microplate reader (PerkinElmer), and the inhibition rates (%) of the compounds were calculated. Then, the half-maximal inhibitory concentration (IC50) values were obtained using the XLfit5 software (ID Business Solutions Limited). All samples were tested in duplicate wells.
(§7) [formula] • wherein • OD450test compound represents the optical density value in the wells of the compounds to be tested; • OD450cell represents the optical density value in the wells of cell controls; • OD450background represents the optical density value in the wells of cell-free controls.

MDA-MB-453 = assay: as above; assay type: cell-based; details: Homo sapiens, MDA-MB-453, 144 h, read-out: IC50, nM MDA-MB-453
Procedure: as §4, §5, §6, §7

CD38 (Ramos cells) = molecular target: T5, CD38 (Ramos cells) (Homo sapiens, UniProt P28907); assay: Binding of antibody or ADC to Ramos cells (CD38+) by flow cytometry; details: cell binding, MFI by flow cytometry
T5 construct: Ramos cells (ATCC, Cat. No. CRL-1596); host or cells: Ramos

CD20 [3] = molecular target: T6, CD20 (UniProt P11836 1-297, limits assumed); assay: cell-based or functional assay
T6 sequence (looked up): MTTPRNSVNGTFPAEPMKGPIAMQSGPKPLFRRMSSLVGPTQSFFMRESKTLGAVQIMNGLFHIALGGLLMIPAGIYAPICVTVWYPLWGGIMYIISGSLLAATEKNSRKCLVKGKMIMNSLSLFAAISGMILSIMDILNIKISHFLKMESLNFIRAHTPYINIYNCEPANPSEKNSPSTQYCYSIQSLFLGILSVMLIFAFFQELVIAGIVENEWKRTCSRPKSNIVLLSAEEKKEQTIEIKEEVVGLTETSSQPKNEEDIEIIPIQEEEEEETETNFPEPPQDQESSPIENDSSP

CD20 [4] = molecular target: T6, CD20; assay: flow cytometry on Ramos cells (CD20+)
CEACAM5/6 [5] = assay: flow cytometry on H2122 cells (CEACAM5/6+)
CEACAM5/6 [6] = assay: cell-based or functional assay
[7] = payloads, proliferation, 6 days, CCK-8

T3 sequence (Q13535 whole entry): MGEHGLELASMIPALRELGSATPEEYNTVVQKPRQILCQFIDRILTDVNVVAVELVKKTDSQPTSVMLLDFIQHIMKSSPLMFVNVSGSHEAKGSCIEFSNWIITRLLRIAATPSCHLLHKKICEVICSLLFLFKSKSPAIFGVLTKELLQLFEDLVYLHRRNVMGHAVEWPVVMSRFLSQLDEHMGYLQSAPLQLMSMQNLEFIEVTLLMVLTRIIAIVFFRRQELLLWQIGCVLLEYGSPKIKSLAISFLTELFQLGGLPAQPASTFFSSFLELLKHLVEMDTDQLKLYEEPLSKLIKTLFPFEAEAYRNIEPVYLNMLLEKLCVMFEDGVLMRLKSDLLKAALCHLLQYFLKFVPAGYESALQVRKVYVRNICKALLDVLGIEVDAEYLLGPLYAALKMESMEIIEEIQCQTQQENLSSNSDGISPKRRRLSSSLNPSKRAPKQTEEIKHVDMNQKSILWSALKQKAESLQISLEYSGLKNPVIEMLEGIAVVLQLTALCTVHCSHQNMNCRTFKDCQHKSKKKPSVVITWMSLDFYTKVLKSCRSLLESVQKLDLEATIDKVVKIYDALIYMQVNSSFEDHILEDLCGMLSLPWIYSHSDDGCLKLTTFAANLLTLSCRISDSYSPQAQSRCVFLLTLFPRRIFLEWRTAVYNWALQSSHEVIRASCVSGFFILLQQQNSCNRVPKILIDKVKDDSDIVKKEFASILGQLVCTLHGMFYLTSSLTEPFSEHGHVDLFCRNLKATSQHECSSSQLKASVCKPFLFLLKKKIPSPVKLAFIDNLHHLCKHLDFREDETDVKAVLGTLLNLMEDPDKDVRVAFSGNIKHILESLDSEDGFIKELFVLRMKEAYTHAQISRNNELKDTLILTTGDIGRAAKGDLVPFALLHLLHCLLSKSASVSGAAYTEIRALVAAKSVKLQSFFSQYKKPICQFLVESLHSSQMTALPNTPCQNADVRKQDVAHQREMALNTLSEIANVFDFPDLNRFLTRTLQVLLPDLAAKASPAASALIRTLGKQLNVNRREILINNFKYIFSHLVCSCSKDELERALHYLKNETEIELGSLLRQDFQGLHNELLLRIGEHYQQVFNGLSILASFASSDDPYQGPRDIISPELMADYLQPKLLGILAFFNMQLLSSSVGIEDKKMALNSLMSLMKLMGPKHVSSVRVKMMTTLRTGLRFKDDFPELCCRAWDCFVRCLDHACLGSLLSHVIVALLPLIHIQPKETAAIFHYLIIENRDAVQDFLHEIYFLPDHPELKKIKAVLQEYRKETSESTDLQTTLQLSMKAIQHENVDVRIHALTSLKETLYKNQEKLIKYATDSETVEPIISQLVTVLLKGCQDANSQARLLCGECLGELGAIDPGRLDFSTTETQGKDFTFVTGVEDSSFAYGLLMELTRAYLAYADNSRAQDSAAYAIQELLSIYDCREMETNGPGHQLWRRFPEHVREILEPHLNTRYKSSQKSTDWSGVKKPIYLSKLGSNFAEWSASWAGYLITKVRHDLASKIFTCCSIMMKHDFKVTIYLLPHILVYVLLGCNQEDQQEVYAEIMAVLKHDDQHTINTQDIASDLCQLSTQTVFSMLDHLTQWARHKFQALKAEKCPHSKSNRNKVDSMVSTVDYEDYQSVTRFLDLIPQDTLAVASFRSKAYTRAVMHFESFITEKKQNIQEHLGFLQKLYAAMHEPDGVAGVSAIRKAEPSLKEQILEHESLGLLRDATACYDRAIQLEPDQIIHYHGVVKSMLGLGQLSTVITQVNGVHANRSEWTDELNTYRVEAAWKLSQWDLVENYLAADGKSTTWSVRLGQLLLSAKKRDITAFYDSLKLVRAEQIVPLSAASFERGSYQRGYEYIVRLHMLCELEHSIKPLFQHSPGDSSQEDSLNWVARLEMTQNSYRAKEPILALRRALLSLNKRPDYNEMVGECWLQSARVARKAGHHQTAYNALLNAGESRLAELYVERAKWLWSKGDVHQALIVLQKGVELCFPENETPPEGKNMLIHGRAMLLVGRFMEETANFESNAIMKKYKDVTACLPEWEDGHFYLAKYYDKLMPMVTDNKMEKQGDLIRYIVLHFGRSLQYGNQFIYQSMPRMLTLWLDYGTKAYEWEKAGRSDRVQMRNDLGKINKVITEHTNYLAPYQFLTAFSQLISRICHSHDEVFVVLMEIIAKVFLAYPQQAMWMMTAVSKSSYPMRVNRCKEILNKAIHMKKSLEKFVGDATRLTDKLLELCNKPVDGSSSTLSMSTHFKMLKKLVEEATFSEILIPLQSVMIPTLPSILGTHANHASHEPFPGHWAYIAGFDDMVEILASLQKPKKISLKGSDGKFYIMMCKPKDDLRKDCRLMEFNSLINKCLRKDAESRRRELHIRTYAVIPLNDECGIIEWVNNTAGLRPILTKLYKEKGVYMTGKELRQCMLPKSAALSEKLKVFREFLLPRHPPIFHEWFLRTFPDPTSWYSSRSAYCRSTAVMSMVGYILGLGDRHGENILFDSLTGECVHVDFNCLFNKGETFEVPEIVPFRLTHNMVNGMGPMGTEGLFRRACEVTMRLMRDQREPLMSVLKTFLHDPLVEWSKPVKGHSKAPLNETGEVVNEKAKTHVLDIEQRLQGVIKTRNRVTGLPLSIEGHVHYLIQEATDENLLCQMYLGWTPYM
T3 sequence (Q8WXE1 whole entry partner): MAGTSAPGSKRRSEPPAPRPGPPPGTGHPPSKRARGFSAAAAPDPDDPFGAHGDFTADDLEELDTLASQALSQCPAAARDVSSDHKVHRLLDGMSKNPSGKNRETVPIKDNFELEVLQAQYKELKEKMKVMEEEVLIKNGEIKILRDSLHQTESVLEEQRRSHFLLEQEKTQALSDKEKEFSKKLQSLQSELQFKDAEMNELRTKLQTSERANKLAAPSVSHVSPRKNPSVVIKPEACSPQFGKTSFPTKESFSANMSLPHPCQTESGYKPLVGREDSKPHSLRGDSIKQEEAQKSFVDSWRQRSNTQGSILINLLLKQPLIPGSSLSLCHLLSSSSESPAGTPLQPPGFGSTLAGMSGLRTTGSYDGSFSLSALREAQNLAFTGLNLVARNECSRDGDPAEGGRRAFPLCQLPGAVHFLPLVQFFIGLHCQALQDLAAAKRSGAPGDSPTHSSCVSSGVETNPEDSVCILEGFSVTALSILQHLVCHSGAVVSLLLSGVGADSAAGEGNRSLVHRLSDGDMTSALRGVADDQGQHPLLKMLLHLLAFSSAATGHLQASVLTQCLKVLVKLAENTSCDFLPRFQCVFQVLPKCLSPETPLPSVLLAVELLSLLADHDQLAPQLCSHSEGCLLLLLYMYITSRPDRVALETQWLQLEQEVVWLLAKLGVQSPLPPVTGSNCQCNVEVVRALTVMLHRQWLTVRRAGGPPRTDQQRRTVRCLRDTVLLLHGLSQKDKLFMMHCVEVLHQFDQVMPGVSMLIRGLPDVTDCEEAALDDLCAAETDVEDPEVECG
T1 sequence (P42345 1360-2549 limits assumed): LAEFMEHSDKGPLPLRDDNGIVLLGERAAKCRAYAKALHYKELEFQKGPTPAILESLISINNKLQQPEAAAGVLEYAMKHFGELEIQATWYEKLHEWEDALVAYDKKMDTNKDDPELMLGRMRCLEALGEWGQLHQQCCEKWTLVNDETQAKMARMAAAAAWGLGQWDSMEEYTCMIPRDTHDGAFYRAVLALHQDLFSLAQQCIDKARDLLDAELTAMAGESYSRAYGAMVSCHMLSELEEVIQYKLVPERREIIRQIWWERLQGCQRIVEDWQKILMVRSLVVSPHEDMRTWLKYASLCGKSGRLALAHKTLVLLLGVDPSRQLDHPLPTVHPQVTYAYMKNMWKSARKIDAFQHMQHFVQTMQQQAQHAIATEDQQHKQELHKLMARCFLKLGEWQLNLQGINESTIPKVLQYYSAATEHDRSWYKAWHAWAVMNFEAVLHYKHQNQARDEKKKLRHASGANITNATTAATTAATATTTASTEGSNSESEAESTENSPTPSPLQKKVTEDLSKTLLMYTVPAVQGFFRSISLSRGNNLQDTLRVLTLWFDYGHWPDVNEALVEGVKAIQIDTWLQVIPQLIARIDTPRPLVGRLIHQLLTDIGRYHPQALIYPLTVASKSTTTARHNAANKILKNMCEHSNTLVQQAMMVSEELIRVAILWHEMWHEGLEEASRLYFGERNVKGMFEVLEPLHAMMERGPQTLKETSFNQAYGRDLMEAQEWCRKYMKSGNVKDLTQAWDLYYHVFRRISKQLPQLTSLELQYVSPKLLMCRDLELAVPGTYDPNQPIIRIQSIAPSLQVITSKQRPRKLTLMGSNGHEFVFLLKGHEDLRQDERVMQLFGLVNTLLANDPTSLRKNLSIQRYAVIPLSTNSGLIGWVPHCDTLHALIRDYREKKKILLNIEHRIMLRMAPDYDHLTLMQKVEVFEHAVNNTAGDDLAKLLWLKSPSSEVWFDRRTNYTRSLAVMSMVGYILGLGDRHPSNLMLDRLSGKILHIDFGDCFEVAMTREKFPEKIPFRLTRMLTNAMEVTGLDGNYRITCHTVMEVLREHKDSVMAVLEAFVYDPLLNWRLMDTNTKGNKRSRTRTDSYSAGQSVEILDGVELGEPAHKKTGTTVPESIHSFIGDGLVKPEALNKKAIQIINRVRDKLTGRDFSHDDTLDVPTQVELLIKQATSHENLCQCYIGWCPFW

Molecule: COc1ncc(-c2ccc3ncc4c(c3c2)n(C(C)C)c(=O)n4C)cc1NS(=O)(=O)N1CCNCC1 [Compound 29]
- IC50 (ATM(h)): 0.7 nM
- IC50 [1]: 1.4 nM
- IC50 [2]: 1.4 nM
- IC50 (ATR/ATRIP(h)): 20 nM
- IC50 (DNA-PK(h)): 0.3 nM
- IC50 (MDA-MB-468; [7]): 0.078 nM
- IC50 (MDA-MB-453; [7]): 0.056 nM

Molecule: COc1ncc(-c2ccc3ncc4c(c3c2)n(C2CC2)c(=O)n4C)cc1NS(=O)(=O)N1CCNCC1 [Compound 2]
- IC50 (ATM(h)): 1 nM
- IC50 [1]: 6.3 nM
- IC50 [2]: 0.7 nM
- IC50 (ATR/ATRIP(h)): 13 nM
- IC50 (DNA-PK(h)): 0.4 nM
- IC50 (MDA-MB-468): 0.41 nM
- IC50 (MDA-MB-453): 0.31 nM

Molecule: COc1ncc(-c2ccc3ncc4cnc(C5CC5)n4c3c2)cc1NS(=O)(=O)N1CCNCC1 [Compound 1]
- IC50 (ATM(h)): 0.5 nM
- IC50 [1]: 3.6 nM
- IC50 [2]: 0.5 nM
- IC50 (ATR/ATRIP(h)): 9 nM
- IC50 (DNA-PK(h)): 0.1 nM
- IC50 (MDA-MB-468; [7]): 0.39 nM
- IC50 (MDA-MB-453; [7]): 0.23 nM

B1: ADC-24 (antibody, human IgG1, kappa, V domains shown)
VH: QVQLQQPGAELVKPGASVKMSCKASGYTFTSYNMHWVKQTPGRGLEWIGAIYPGNGDTSYNQKFKGKATLTADKSSSTAYMQLSSLTSEDSAVYYCARSTYYGGDWYFNVWGAGTTVTVSA
VL: QIVLSQSPAILSASPGEKVTMTCRASSSVSYIHWFQQKPGSSPKPWIYATSNLASGVPVRFSGSGSGTSYSLTISRVEAEDAATYYCQQWTSNPPTFGGGTKLEIKR
- IC50, nM, cell proliferation, Ramos cell line (CD20^+) (CD20 [3]): 27.7 nM
- EC50 (CD20 [4]): 0.457 nM

B3: ADC-32 (antibody, human IgG1, kappa, V domains shown)
VH: QVQLVQSGAEVKKPGASVKVSCKASGYTFTDYAMHWVRQAPGQRLEWMGLISTYSGDTKYNQNFQGRVTMTVDKSASTAYMELSSLRSEDTAVYYCARGDYSGSRYWFAYWGQGTLVTVSS
VL: DIQMTQSPSSLSASVGDRVTITCQASENIYGALNWYQRKPGKSPKLLIYGASNLATGMPSRFSGSGSGTDYTFTISSLQPEDIATYYCQQVLSSPYTFGGGTKLEIKR
- EC50 (CEACAM5/6 [5]): 4.26 nM
- IC50, nM, cell proliferation, H2122 cell line (CEACAM 5/6^+) (CEACAM5/6 [6]): 0.29 nM

The next lines start with the values.

- EC50 (CD38 (Ramos cells)): 3.51 nM
Molecule: daratumumab

- IC50 (ATM(h)): 1 nM
- IC50 [1]: 4.6 nM
- IC50 [2]: 2.3 nM
- IC50 (ATR/ATRIP(h)): 36 nM
- IC50 (DNA-PK(h)): 0.6 nM
- IC50 (MDA-MB-468; [7]): 0.64 nM
- IC50 (MDA-MB-453; [7]): 0.41 nM
Molecule: COCC1(n2c(=O)n(C)c3cnc4ccc(-c5cnc(OC)c(NS(=O)(=O)N6CCNCC6)c5)cc4c32)CC1 [Compound 30]

- EC50 (CD20 [4]): 0.691 nM
B2: Rituximab (antibody, human IgG1, kappa, V domains shown)
VH: B1 VH
VL: B1 VL

- EC50 (CEACAM5/6 [5]): 7.94 nM
B4: mAb1 (antibody, human IgG1, kappa, V domains shown)
VH: B3 VH
VL: B3 VL
